Experimental data published in ChEMBL document CHEMBL2384960, “Anti-inflammatory secondary metabolites from the leaves of Rosa laevigata” (Bioorg Med Chem, 2013).
The source made the active and inactive calls. No cut-off for these calls is given here.

How the values were obtained:
RAW264.7 [1] = assay: Antiinflammatory activity in mouse RAW264.7 cells assessed as inhibition of LPS-induced TNF-alpha release at 0.5 to 100 ug/ml incubated for 4 hrs prior to LPS challenge measured after 24 hrs by ELISA; assay type: functional, cell-based
HEK293 = assay: (§1) Inhibition of LPS-induced NF-kappaB activation in HEK293 cells incubated for 4 hrs prior to LPS challenge measured after 48 hrs by luciferase reporter gene assay; assay type: cell-based; details: Homo sapiens
[2] = as §1; assay type: cell-based; details: Homo sapiens
RAW264.7 [3] = assay: Antiinflammatory activity in mouse RAW264.7 cells assessed as inhibition of LPS-induced IL-1beta release at 0.5 to 100 ug/ml incubated for 4 hrs prior to LPS challenge measured after 24 hrs by ELISA; assay type: functional, cell-based
RAW264.7 [4] = assay: Cytotoxicity against mouse RAW264.7 cells up to 50 ug/ml after 24 hrs by MTT assay in presence of LPS; assay type: cell-based; details: raw264.7, 24 h
RAW264.7 [5] = assay: Antiinflammatory activity in mouse RAW264.7 cells assessed as inhibition of LPS-induced IL-10 release at 0.5 to 100 ug/ml incubated for 4 hrs prior to LPS challenge measured after 24 hrs by ELISA; assay type: functional, cell-based
RAW264.7 [6] = assay: Antiinflammatory activity in mouse RAW264.7 cells assessed as inhibition of LPS-induced IL-6 release at 0.5 to 100 ug/ml incubated for 4 hrs prior to LPS challenge measured after 24 hrs by ELISA; assay type: functional, cell-based
RAW264.7 [7] = assay: Antiinflammatory activity in mouse RAW264.7 cells assessed as inhibition of LPS-induced IL-1beta release incubated for 4 hrs prior to LPS challenge measured after 24 hrs by ELISA; assay type: functional, cell-based
RAW264.7 [8] = assay: Antiinflammatory activity in mouse RAW264.7 cells assessed as inhibition of LPS-induced IL-10 release incubated for 4 hrs prior to LPS challenge measured after 24 hrs by ELISA; assay type: functional, cell-based
RAW264.7 [9] = assay: Antiinflammatory activity in mouse RAW264.7 cells assessed as inhibition of LPS-induced TNF-alpha release incubated for 4 hrs prior to LPS challenge measured after 24 hrs by ELISA; assay type: functional, cell-based
RAW264.7 [10] = assay: Antiinflammatory activity in mouse RAW264.7 cells assessed as inhibition of LPS-induced IL-6 release incubated for 4 hrs prior to LPS challenge measured after 24 hrs by ELISA; assay type: functional, cell-based

IC50 [2] | IC50 (RAW264.7 [7]) | IC50 (RAW264.7 [8]) | IC50 (RAW264.7 [9]) | IC50 (RAW264.7 [10]) | SMILES | inhibition (RAW264.7 [1]) | inhibition (HEK293) | inhibition (RAW264.7 [3]) | Activity (RAW264.7 [4]) | inhibition (RAW264.7 [5]) | inhibition (RAW264.7 [6])
79 µM | – | – | – | – | C[C@@H]1CC[C@]2(C(=O)O)CC[C@]3(C)C(=CC[C@@H]4[C@@]5(C)C[C@@H](O)[C@H](O)[C@@](C)(CO)[C@@H]5CC[C@]43C)[C@@H]2[C@]1(C)O | Active | Dose-dependent effect | Active | Non-toxic | Active | Active
65.6 µM | – | – | – | – | C[C@]1(CO)CC[C@]2(C(=O)O[C@@H]3O[C@H](CO)[C@@H](O)[C@H](O)[C@H]3O)CC[C@]3(C)C(=C2C1)CC[C@@H]1[C@@]2(C)C[C@@H](O)[C@H](O)[C@@](C)(CO)[C@@H]2CC[C@]13C | Active | Dose-dependent effect | Active | Non-toxic | Active | Active
23.2 µM | 8.53 µM | 10.4 µM | 14.3 µM | 8.04 µM | C[C@@H]1CC[C@]2(C(=O)O)CC[C@]3(C)C(=CC[C@@H]4[C@@]5(C)C[C@@H](O)[C@@H](O)[C@@](C)(CO)[C@@H]5CC[C@]43C)[C@@H]2[C@]1(C)O | Active | Dose-dependent effect | Active | Non-toxic | Active | Active
175 µM | – | – | – | – | C[C@@H]1CC[C@]2(C(=O)O)CC[C@]3(C)C(=CC[C@@H]4[C@@]5(C)C[C@@H](O)[C@@H](O)C(C)(C)[C@@H]5CC[C@]43C)[C@@H]2[C@]1(C)O [EUSCAPHIC ACID] | – | Dose-dependent effect | – | Non-toxic | – | –
